{
  "source": "patent US20250152527A1",
  "about": "(priority 2023, published 2025)",
  "key": {"[1]": {"tested_on": "patients with clinically stable coronary disease", "details": "Nidorf et al., JACC 2013; 0.5 mg/day in addition to statins and other standard therapies; cited from earlier work"}, "[2]": {"tested_on": "patients with clinically stable coronary disease", "experiment": "LoDoCo Trial: colchicine 0.5 mg/day added to standard secondary prevention therapies", "assay_type": "in vivo, human", "procedure": "This study is described in PCT/AU2013/001261 and is hereby incorporated in its entirety by reference.\nAll outcomes were evaluated by an experienced adjudicator blinded to the treatment allocation.\nPatients with a history of bypass surgery were only eligible if they had undergone bypass surgery more than 10 years before, or had angiographic evidence of graft failure or had undergone stenting since their bypass surgery. All patients signed informed consent before randomization.\nPatients who were intolerant to therapy remained in the study, and were followed in the usual manner and included in the primary intention to treat analysis.\nThe drug was dispensed by their usual chemist, and if requested, patients were reimbursed for the cost of these scripts. All other treatments were continued as usual.\nAn acute coronary syndrome (ACS) was defined as either (a) Acute Myocardial Infarction (AMI), as evidenced by acute ischemic chest pain associated with a rise in serum troponin above the upper limit of normal or (b) Unstable Angina (UA), as evidenced by a recent acceleration of the patient's angina unassociated with a rise in serum troponin but associated with angiographic evidence of a change in the patient's coronary anatomy. (Unstable Angina Braunwald classification types IB and IIB). The ACS was characterized as being stent-related if there was evidence of significant in-stent stenosis or acute stent thrombosis. Out of Hospital Cardiac Arrest was defined as either a sudden death as evidenced on the patient's death certificate, or a non-fatal out of hospital cardiac arrest, defined as a recovery from sudden collapse associated with documented asystole, ventricular tachycardia or ventricular fibrillation.\nThe primary efficacy outcome was the composite, ACS, fatal or non-fatal out of hospital cardiac arrest or non-cardio-embolic ischemic stroke. […]\nAll time to event outcomes were calculated in days by subtracting the date of randomization from either: (1) the date of event or death; or (2) the trial termination date for those patients not experiencing the defined event. […]"}},
  "data": [
    {"smiles": "COc1cc2c(c(OC)c1OC)-c1ccc(OC)c(=O)cc1[C@@H](NC(C)=O)CC2", "note": "[colchicine, (−)-N-[(7S, 12aS)-1,2,3,10-tetramethoxy-9-oxo-5,6,7,9-tetrahydrobenzo[a]heptalen-7-yl]-acetamide]", "values": [
      {"measurement": "prevention of cardiovascular events", "setting": "[1]", "value": "appeared effective for the prevention of cardiovascular events"},
      {"measurement": "patients with ACS unrelated to stent disease associated with an AMI", "setting": "[2]; 4/282 patients", "value": 1.4, "unit": "%"},
      {"measurement": "patients with ACS unrelated to stent disease associated with UA", "setting": "[2]; 5/282 patients", "value": 1.8, "unit": "%"},
      {"measurement": "patients with a primary outcome (ACS, out of hospital cardiac arrest or non-cardio-embolic ischemic stroke)", "setting": "[2]; intention to treat, 15/282 patients, colchicine 0.5 mg/day, median follow up 36 months", "value": 5.3, "unit": "%"}
    ]}
  ]
}
